Experimental data taken from patent US20240158370A1, “CK1 alpha AND DUAL CK1 alpha / GSPT1 DEGRADING COMPOUNDS” (Innovo Therapeutics, Inc., priority 2022, published 2024).

Columns and labels:
CK1α = target: T1, CK1α (Homo sapiens, UniProt P48729+Q96SW2); assay: HiBiT degradation assay, CK1α, Procedure A; assay type: cell-based; conditions: six hours incubation
T1 construct: CSNK1A1-HiBit KI HEK293(LgBit) Cells; host or cells: HEK293(LgBit) knock-in cells
Procedure, shortened: (§1)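 Luminescence from HiBiT lytic detection, read after 20 min shaking, gave DC50 and Ymin by 4-parameter fit. Before that, cells (1×10^6 cells/ml, DMEM+10% FBS) sat 6 h at 37° C on 10-point compound series (10 μM–0.005 μM, 0.1% DMSO).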

GSPT1 = GSPT1 (Homo sapiens, UniProt P15170+Q96SW2); assay: HiBiT degradation assay, GSPT1, Procedure A; assay type: cell-based; parameters: HiBit-GSPT1 KI HEK293(LgBit) Cells; host or cells: HEK293(LgBit) knock-in cells; conditions: six hours incubation
Procedure, shortened: as §1

T1 sequence (P48729 whole entry): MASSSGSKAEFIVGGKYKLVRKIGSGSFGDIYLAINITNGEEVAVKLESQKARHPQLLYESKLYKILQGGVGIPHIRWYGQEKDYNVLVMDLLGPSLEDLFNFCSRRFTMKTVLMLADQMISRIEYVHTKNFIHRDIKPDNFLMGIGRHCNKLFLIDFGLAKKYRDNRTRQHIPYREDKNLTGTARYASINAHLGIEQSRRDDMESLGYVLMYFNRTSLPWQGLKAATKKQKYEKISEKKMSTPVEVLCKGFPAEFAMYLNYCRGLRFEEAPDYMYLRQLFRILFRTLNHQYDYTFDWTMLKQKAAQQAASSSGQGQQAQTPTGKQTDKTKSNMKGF
T1 sequence (Q96SW2 whole entry): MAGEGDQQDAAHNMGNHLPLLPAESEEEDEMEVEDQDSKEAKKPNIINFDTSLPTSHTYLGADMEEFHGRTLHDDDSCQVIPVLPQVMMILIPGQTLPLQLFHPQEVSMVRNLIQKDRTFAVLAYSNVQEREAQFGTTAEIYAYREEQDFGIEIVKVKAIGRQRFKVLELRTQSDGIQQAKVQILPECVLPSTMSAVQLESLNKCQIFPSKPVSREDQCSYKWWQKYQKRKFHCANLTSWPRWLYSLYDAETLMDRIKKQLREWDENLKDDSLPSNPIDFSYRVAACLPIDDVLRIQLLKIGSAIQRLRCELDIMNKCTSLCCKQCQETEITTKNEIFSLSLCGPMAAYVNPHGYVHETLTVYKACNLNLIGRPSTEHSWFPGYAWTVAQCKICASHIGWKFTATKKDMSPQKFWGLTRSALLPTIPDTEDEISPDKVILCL
T1 sequence (Q16531 whole entry partner): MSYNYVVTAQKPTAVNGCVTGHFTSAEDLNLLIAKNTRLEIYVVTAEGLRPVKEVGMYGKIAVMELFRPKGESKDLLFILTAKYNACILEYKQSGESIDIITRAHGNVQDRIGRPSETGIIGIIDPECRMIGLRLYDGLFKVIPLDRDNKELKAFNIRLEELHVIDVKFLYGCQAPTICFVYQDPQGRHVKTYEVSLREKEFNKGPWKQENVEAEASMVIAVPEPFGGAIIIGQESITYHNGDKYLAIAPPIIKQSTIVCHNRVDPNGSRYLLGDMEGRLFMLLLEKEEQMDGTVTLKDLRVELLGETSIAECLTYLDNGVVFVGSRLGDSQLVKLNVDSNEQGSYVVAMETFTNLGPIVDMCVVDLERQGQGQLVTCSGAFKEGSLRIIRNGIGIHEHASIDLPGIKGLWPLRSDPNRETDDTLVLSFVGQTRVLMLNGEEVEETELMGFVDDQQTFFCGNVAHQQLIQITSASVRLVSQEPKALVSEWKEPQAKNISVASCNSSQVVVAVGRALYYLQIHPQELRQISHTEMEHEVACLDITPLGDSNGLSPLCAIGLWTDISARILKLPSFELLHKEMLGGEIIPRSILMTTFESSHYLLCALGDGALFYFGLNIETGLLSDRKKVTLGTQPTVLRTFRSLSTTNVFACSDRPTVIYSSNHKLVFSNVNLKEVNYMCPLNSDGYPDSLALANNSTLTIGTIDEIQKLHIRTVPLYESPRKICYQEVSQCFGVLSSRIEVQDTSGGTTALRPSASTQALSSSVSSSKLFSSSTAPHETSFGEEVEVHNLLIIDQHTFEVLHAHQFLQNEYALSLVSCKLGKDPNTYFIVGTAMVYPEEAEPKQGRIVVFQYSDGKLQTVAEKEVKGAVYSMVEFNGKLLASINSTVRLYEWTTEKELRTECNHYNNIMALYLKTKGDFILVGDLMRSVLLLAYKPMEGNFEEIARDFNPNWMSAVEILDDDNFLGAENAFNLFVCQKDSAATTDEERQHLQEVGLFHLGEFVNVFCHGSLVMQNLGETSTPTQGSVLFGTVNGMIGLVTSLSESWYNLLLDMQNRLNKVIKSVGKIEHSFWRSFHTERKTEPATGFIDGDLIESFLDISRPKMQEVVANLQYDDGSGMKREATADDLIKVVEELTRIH
Chain of GSPT1 (P15170 whole entry): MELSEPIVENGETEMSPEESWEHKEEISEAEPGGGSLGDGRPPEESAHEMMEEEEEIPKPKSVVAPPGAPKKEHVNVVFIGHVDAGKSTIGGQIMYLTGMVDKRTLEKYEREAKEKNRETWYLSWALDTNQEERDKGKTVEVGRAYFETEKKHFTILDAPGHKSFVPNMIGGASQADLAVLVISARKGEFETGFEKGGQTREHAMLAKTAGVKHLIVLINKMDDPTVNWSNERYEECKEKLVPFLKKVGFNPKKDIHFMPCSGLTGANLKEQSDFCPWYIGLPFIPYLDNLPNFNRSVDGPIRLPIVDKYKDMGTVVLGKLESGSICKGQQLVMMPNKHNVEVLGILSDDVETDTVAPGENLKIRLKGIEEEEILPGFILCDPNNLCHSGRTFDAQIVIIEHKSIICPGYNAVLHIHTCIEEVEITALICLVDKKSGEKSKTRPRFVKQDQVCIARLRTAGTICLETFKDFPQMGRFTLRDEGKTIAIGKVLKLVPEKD
Chain of GSPT1 (Q96SW2 whole entry): as the sequence (Q96SW2 whole entry) above
Chain of GSPT1 (Q16531 whole entry partner): as the sequence (Q16531 whole entry partner) above

Structure (SMILES) | CK1α Ymin (CK1α) | DC50 (CK1α) | DC50 (GSPT1) | GSPT1 Ymin (GSPT1)
Cn1cnc(-c2ccc3c(c2)CN(C2CCC(=O)NC2=O)C3=O)c1-c1ccc(C#N)cc1F (stereo not shown) [Example 187] | D (D = >10- 25% remaining) | < 25 nM | ≥ 25 nM | F (F = >75-100% remaining)
COc1ccc(-c2c(-c3ccc4c(c3)CN(C3CCC(=O)NC3=O)C4=O)ncn2C)c(C)c1 (stereo not shown) [Example 188] | C (C = 0-10% remaining) | < 25 nM | < 25 nM | E (E = >25-75% remaining)
COc1ccc(-c2c(-c3ccc4c(c3)CN(C3CCC(=O)NC3=O)C4=O)ncn2C)c(F)c1 (stereo not shown) [Example 189] | C (C = 0-10% remaining) | < 25 nM | < 25 nM | E (E = >25-75% remaining)
COc1cccc(-c2c(-c3ccc4c(c3)CN(C3CCC(=O)NC3=O)C4=O)ncn2C)c1F (stereo not shown) [Example 190] | E (E = >25-75% remaining) | < 25 nM | < 25 nM | E (E = >25-75% remaining)
COc1ccc(F)cc1-c1c(-c2ccc3c(c2)CN(C2CCC(=O)NC2=O)C3=O)ncn1C (stereo not shown) [Example 191] | E (E = >25-75% remaining) | < 25 nM | < 25 nM | E (E = >25-75% remaining)
COc1cc(F)ccc1-c1c(-c2ccc3c(c2)CN(C2CCC(=O)NC2=O)C3=O)ncn1C (stereo not shown) [Example 192] | E (E = >25-75% remaining) | < 25 nM | < 25 nM | E (E = >25-75% remaining)
COc1ccc(F)c(-c2c(-c3ccc4c(c3)CN(C3CCC(=O)NC3=O)C4=O)ncn2C)c1 (stereo not shown) [Example 193] | D (D = >10- 25% remaining) | < 25 nM | < 25 nM | F (F = >75-100% remaining)
COc1ccc(-c2c(-c3ccc4c(c3)CN(C3CCC(=O)NC3=O)C4=O)ncn2C)cc1F (stereo not shown) [Example 194] | C (C = 0-10% remaining) | < 25 nM | < 25 nM | E (E = >25-75% remaining)
COc1c(F)cccc1-c1c(-c2ccc3c(c2)CN(C2CCC(=O)NC2=O)C3=O)ncn1C (stereo not shown) [Example 195] | D (D = >10- 25% remaining) | < 25 nM | < 25 nM | E (E = >25-75% remaining)
Cc1ccc(Cl)cc1-c1c(-c2ccc3c(c2)CN(C2CCC(=O)NC2=O)C3=O)ncn1C (stereo not shown) [Example 196] | E (E = >25-75% remaining) | < 25 nM | < 25 nM | F (F = >75-100% remaining)
Cc1ccc(-c2c(-c3ccc4c(c3)CN(C3CCC(=O)NC3=O)C4=O)ncn2C)cc1Cl (stereo not shown) [Example 197] | E (E = >25-75% remaining) | < 25 nM | < 25 nM | E (E = >25-75% remaining)
Cc1ccc(-c2c(-c3ccc4c(c3)CN(C3CCC(=O)NC3=O)C4=O)ncn2C)c(Cl)c1 (stereo not shown) [Example 198] | C (C = 0-10% remaining) | < 25 nM | < 25 nM | E (E = >25-75% remaining)
Cc1ccc(Cl)c(-c2c(-c3ccc4c(c3)CN(C3CCC(=O)NC3=O)C4=O)ncn2C)c1 (stereo not shown) [Example 199] | D (D = >10- 25% remaining) | < 25 nM | < 25 nM | F (F = >75-100% remaining)
Cc1cc(-c2c(-c3ccc4c(c3)CN(C3CCC(=O)NC3=O)C4=O)ncn2C)ccc1Cl (stereo not shown) [Example 200] | D (D = >10- 25% remaining) | < 25 nM | < 25 nM | E (E = >25-75% remaining)
Cc1cc(Cl)cc(-c2c(-c3ccc4c(c3)CN(C3CCC(=O)NC3=O)C4=O)ncn2C)c1 (stereo not shown) [Example 201] | E (E = >25-75% remaining) | < 25 nM | ≥ 25 nM | F (F = >75-100% remaining)
Cn1cnc(-c2ccc3c(c2)CN(C2CCC(=O)NC2=O)C3=O)c1-c1cccc(C(F)F)c1 (stereo not shown) [Example 202] | D (D = >10- 25% remaining) | < 25 nM | ≥ 25 nM | F (F = >75-100% remaining)
Cn1cnc(-c2ccc3c(c2)CN(C2CCC(=O)NC2=O)C3=O)c1-c1ccc(C(F)F)cc1 (stereo not shown) [Example 203] | D (D = >10- 25% remaining) | < 25 nM | ≥ 25 nM | E (E = >25-75% remaining)

Structure (SMILES) | CK1α Ymin (CK1α) | DC50 (CK1α) | DC50 (GSPT1) | GSPT1 Ymin (GSPT1)
Cn1cnc(-c2ccc3c(c2)CN(C2CCC(=O)NC2=O)C3=O)c1-c1cc(F)cc(Cl)c1 (stereo not shown) [Example 204] | E (E = >25-75% remaining) | < 25 nM | ≥ 25 nM | F (F = >75-100% remaining)
O=C1CCC(N2Cc3cc(-c4cncn4-c4ccccc4)ccc3C2=O)C(=O)N1 (stereo not shown) [Example 205, 3-(1-Oxo-5-(1-phenyl-1H-imidazol-5-yl)isoindolin-2-yl)piperidine-2,6-dione] | E (E = >25-75% remaining) | < 25 nM | ≥ 25 nM | F (F = >75-100% remaining)
O=C1CCC(N2Cc3cc(-c4conc4-c4ccccc4)ccc3C2=O)C(=O)N1 (stereo not shown) [Example 206, 3-(1-Oxo-5-(3-phenylisoxazol-4-yl)isoindolin-2-yl)piperidine-2,6-dione] | E (E = >25-75% remaining) | ≥ 25 nM | ≥ 25 nM | F (F = >75-100% remaining)
[2H]C([2H])([2H])n1ncc(-c2ccc3c(c2)CN(C2CCC(=O)NC2=O)C3=O)c1-c1ccccc1 (stereo not shown) [Example 207, 3-(5-(1-(Methyl-d3)-5-phenyl-1H-pyrazol-4-yl)-1-oxoisoindolin-2-yl)piperidine-2,6-dione] | D (D = >10- 25% remaining) | < 25 nM | ≥ 25 nM | F (F = >75-100% remaining)
O=C1CCC(N2Cc3cc(-c4cnn(CC(F)(F)F)c4-c4ccccc4)ccc3C2=O)C(=O)N1 (stereo not shown) [Example 208, 3-(1-Oxo-5-(5-phenyl-1-(2,2,2-trifluoroethyl)-1H-pyrazol-4-yl)isoindolin-2-yl)piperidine-2,6-dione] | D (D = >10- 25% remaining) | < 25 nM | ≥ 25 nM | F (F = >75-100% remaining)
Cn1cc(-c2ccc3c(c2)CN(C2CCC(=O)NC2=O)C3=O)nc1-c1ccc(C(F)(F)F)cc1 (stereo not shown) [Example 209, 3-(5-(1-methyl-2-(4-(trifluoromethyl)phenyl)-1H-imidazol-4-yl)-1-oxoisoindolin-2-yl)piperidine-2,6-dione] | C (C = 0-10% remaining) | < 25 nM | ≥ 25 nM | F (F = >75-100% remaining)
O=C1CCC(N2Cc3cc(-c4cc(-c5ccccc5)[nH]n4)ccc3C2=O)C(=O)N1 (stereo not shown) [Example 210, 3-(1-Oxo-5-(5-phenyl-1H-pyrazol-3-yl)isoindolin-2-yl)piperidine-2,6-dione] | D (D = >10- 25% remaining) | < 25 nM | ≥ 25 nM | F (F = >75-100% remaining)
Cc1c(-c2ccc3c(c2)CN(C2CCC(=O)NC2=O)C3=O)nn(C)c1-c1ccccc1 (stereo not shown) [Example 211, 3-(5-(1,4-Dimethyl-5-phenyl-1H-pyrazol-3-yl)-1-oxoisoindolin-2-yl)piperidine-2,6-dione] | C (C = 0-10% remaining) | < 25 nM | ≥ 25 nM | F (F = >75-100% remaining)
Cc1cc(-c2c(-c3ccc4c(c3)CN(C3CCC(=O)NC3=O)C4=O)cnn2C)c(C)s1 (stereo not shown) [Example 213] | E (E = >25-75% remaining) | < 25 nM | ≥ 25 nM | F (F = >75-100% remaining)
Cn1ncc(-c2ccc3c(c2)CN(C2CCC(=O)NC2=O)C3=O)c1-c1ccc(CN2CCOCC2)cc1 (stereo not shown) [Example 214] | E (E = >25-75% remaining) | < 25 nM | ≥ 25 nM | F (F = >75-100% remaining)
Cc1ccc(-c2c(-c3ccc4c(c3)CN(C3CCC(=O)NC3=O)C4=O)cnn2C)s1 (stereo not shown) [Example 215] | D (D = >10- 25% remaining) | < 25 nM | ≥ 25 nM | F (F = >75-100% remaining)
Cn1ncc(-c2ccc3c(c2)CN(C2CCC(=O)NC2=O)C3=O)c1-c1ccc(Cl)cc1 (stereo not shown) [Example 216] | E (E = >25-75% remaining) | < 25 nM | ≥ 25 nM | F (F = >75-100% remaining)
CN1CCN(c2ccc(-c3c(-c4ccc5c(c4)CN(C4CCC(=O)NC4=O)C5=O)cnn3C)cc2)CC1 (stereo not shown) [Example 217] | D (D = >10- 25% remaining) | < 25 nM | ≥ 25 nM | F (F = >75-100% remaining)
Cn1ncc(-c2ccc3c(c2)CN(C2CCC(=O)NC2=O)C3=O)c1-c1ccc2[nH]ccc2c1 (stereo not shown) [Example 218] | D (D = >10- 25% remaining) | ≥ 25 nM | ≥ 25 nM | F (F = >75-100% remaining)
Cn1ncc(-c2ccc3c(c2)CN(C2CCC(=O)NC2=O)C3=O)c1-c1cccc(O)c1 (stereo not shown) [Example 219] | C (C = 0-10% remaining) | < 25 nM | ≥ 25 nM | F (F = >75-100% remaining)
Cn1ncc(-c2ccc3c(c2)CN(C2CCC(=O)NC2=O)C3=O)c1-c1ccc(OCCCN2CCOCC2)cc1 (stereo not shown) [Example 220] | E (E = >25-75% remaining) | < 25 nM | ≥ 25 nM | F (F = >75-100% remaining)
Cn1ncc(-c2ccc3c(c2)CN(C2CCC(=O)NC2=O)C3=O)c1-c1ccc(S(C)(=O)=O)cc1 (stereo not shown) [Example 221] | E (E = >25-75% remaining) | ≥ 25 nM | ≥ 25 nM | F (F = >75-100% remaining)
